The results in this text go back to patent EP0104572A1, “Benzyl ethers of phenol Mannich bases, process for their production, their use and pharmaceutical preparations based on these compounds, intermediates and process for their production” (priority 1982, dated 1984).

Like-named read-outs stand apart in the source and are kept apart here.

The nature of data set [1]: Change of relative liver weight and liver findings in the 7-day oral rat study. It counts as in vivo, männlichen Wistar-Ratten. The text has this:
Die erfindungsgemäßen Verbindungen haben wertvolle therapeutische Eigenschaften. So erniedrigen sie vor allem die Konzentration von LDL und VLDL, die HDL-Fraktion aber kaum, in vielen Fällen wird diese Fraktion sogar vermehrt. Diese Verbindungen stellen daher einen wesentlichen Fortschritt gegenüber der Vergleichsverbindung Clofibrat dar, wie aus .den nachfolgend beschriebenen Daten ersichtlich ist. Sie können daher zur Prophylaxe und Regression von arteriosklerotischen Veränderungen herangezogen werden, indem sie einen kausalen Risikofaktor ausschalten. Hierzu zählen nicht nur die primären Hyperlidämien, sondern auch gewisse sekundäre Hyperlipidämien wie sie z.B. beim Diabetes vorkommen. […] Die mit einer hypolipidämischen Wirkung verbundene unerwünschte Beeinflussung der Leber zeigt sich auch in sehr starkem Maße bei der in J.Med.Chem. 18 (1975) S. 833-836 beschriebenen Vergleichsverbindung 1-(4-Methylbenzyl)-imidazol. […] Die erfindungsgemäßen Verbindungen zeigen dieses unerwünschte Verhalten nicht.
(§1) Die Wirkung der angeführten Verbindungen auf die Serum- Lipoproteine wurde an männlichen Wistar-Ratten untersucht, die 7 Tage per Schlundsonde mit den angeführten in Polyäthylenglykol 400 suspendierten Verbindungen behandelt wurden. Außerdem wurde eine Kontrollgruppe, die nur das Lösungsmittel Polyäthylenglykol 400 erhielt, mitgeführt, sowie bei den meisten Versuchen eine Ratten-Gruppe mit dem Standardhypolipidämikum Clofibrat. Pro Gruppe wurden in der Regel 10 Tiere eingesetzt, denen am Ende der Behandlung das Blut nach leichter Äthernarkose aus dem Orbitalplexus entnommen wurde. Aus dem gewonnenen Ratten-Serum wurden die Serum- Lipoproteine in der präparativen Ultrazentrifuge in folgende Dichteklassen getrennt: VLDL < 1,006; LDL 1,006 bis 1,04; HDL 1,04 bis 1,21

Another data set relates to Serum-Lipoproteine. The data set is described as follows: Change of serum and lipoprotein-fraction cholesterol in rats after 7 days of oral treatment (ultracentrifuge fractionation, CHOD-PAP cholesterol). The conditions noted are these: for change in vivo at 1 mg/kg / change in vivo at 3 mg/kg / change in vivo at 10 mg/kg / change in vivo at 100 mg/kg: Rattus norvegicus, 168 h, oral (gavage), 7 days, male Wistar rats; for change in vivo at 1 mg/kg: 1 mg/kg / Tag; for change in vivo at 3 mg/kg: 3 mg/kg / Tag; for change in vivo at 10 mg/kg: 10 mg/kg / Tag; for change in vivo at 100 mg/kg: 100 mg/kg / Tag. It counts as in vivo, männlichen Wistar-Ratten.
Source text: as §1
Da nämlich im Gegensatz zum Menschen die Serumlipoproteine der Ratte etwa 4/5 HDL-Cholesterin und nur 1/5 LDL-Cholesterin enthalten und nur sehr geringe Mengen von VLDL (beim Menschen umgekehrt etwa 2/3 LDL und VLDL und nur 1/3 bis 1/4 HDL), macht die Beurteilung einer hypolipidämischen Wir- .kung an der Ratte unbedingt eine Fraktionierung des Ratten-serums in Lipoproteinklassen erforderlich. Eine bloße Erniedrigung des Serum-Total-cholesteringehaltes an der Ratte würde nämlich nur die unerwünschte Erniedrigung der bei der Ratte vorwiegenden antiatherogenen HDL-Klasse anzeigen. Eine erwünschte Erniedrigung von LDL bei gleichzeitiger erwünschter Vermehrung von HDL hätte aber keine (wesentliche) Auswirkung auf den Totalcholesteringehalt des Ratten-Serums.
Aus den in der Ultrazentrifuge isolierten LipoproteinFraktionen wurde das darin enthaltene Cholesterin vollenzymatisch nach der CHOD-PAP-Methode mittels der Testkombination von Boehringer-Mannheim bestimmt und die Werte in µg/ml Serum umgerechnet. In der angeführten Tabelle ist die Veränderung des Lipoprotein-Cholesterins in der behandelten Gruppe gegenüber einer unter gleichen Bedingungen mitgeführten Kontrollgruppe angegeben.
Veränderung in % der Lipoproteine im Ratten-Serum nach siebentägiger oraler Applikation der Verbindungen

The mark [2] stands for this setting: read-out: Cholesterolveränderung in %, bezogen auf die Kontrollgruppe in den Serum-Lipoprotein-Fraktionen LDL.
[3] abbreviates: read-out: Cholesterolveränderung in %, bezogen auf die Kontrollgruppe in den Serum-Lipoprotein-Fraktionen VLDL.
The mark [4] stands for this setting: read-out: Cholesterolveränderung in %, bezogen auf die Kontrollgruppe in den Serum-Lipoprotein-Fraktionen HDL.
Where [5] appears, read: read-out: Cholesterolveränderung in %, bezogen auf die Kontrollgruppe im Serum.

In the case of `Cc1cc(Cn2ccnc2)cc(Cl)c1OCc1ccc(C(O)C(C)(C)C)cc1` (stereo not drawn) [Beispiel 5, α-Tert.-butyl-4-[2-Chlon-6-methyl-4-(imidazol-1-ylmekthyl)-phenoxymethyl]-benzylalkohol], the “% Veränderung des relativen Lebergewichtes” value in data set [1] (3 mg/kg / Tag, oral (gavage), 7 days, male Wistar rats) was “+13%”. Also, the change in vivo at 1 mg/kg was -39% in the data set on Serum-Lipoproteine (setting [2]) and -13% in the data set with Serum-Lipoproteine (setting [3]). In addition, the results for the change in vivo at 3 mg/kg in the data set with Serum-Lipoproteine (setting [4]), in the data set with Serum-Lipoproteine (setting [2]) and in the data set on Serum-Lipoproteine (setting [3]) were 18%, -47% and -10%, respectively. Also, the change in vivo at 10 mg/kg in the data set with Serum-Lipoproteine (setting [5]) was -23%; in the data set with Serum-Lipoproteine (setting [2]) it was -59%; in the data set on Serum-Lipoproteine (setting [3]), -46%.
As to `CCOC(=O)C(C)(C)Oc1ccc(Cl)cc1` [Clofibrat, reference compound], in data set [1] (rat, in vivo), the “relatives Lebergewicht” value is “starken Erhöhung des relativen Lebergewichts”. Further, the change in vivo at 100 mg/kg was -29% with Serum-Lipoproteine (setting [5]), -34% in the data set with Serum-Lipoproteine (setting [4]), -18% in the data set on Serum-Lipoproteine (setting [2]) and -48% with Serum-Lipoproteine (setting [3]). Also, the “Wirkung auf die Lipoproteinfraktionen (VLDL, LDL, HDL)” value in the data set on Serum-Lipoproteine (statement in words summarising the table, rat serum, 7 days oral) is listed as “stärkere Verminderung der HDL- als der LDL-Fraktion”.
